This passage reports inhibition results from publication PMC3392265 (PLoS ONE, 2012).

The target in this assay is T1, GenK (Corynebacterium glutamicum, UniProt Q8NLB7).
T1 construct: full-length, native gene in intact C. glutamicum RES167 cells; mutants expressed from pXMJ19 in RES167 delta-genK; untagged as far as told; 12 predicted transmembrane helices
The assay can be described thus: inhibition of […]-gentisate uptake in RES167 cells. In kind it is cell-based.

T1 sequence (Q8NLB7 whole entry): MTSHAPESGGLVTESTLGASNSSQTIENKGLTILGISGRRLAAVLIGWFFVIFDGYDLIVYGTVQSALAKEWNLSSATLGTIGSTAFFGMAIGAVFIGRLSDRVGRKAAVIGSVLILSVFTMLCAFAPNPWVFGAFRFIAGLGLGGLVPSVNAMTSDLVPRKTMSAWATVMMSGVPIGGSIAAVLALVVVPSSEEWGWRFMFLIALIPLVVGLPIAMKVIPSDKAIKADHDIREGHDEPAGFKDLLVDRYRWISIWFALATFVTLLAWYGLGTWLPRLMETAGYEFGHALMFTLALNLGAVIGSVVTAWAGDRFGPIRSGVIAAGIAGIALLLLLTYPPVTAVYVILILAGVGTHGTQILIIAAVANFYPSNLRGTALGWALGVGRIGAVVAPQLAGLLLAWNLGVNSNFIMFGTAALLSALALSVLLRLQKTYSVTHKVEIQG

Take `O=C(O)c1cccc(O)c1` [3-hydroxybenzoate]: testing at 800 µM gave an inhibition of 94%.
Next, `O=C(O)c1ccccc1` [benzoate]: 40 to 60%; `Oc1ccccc1O` [catechol]: 40 to 60%; `O=C(O)c1ccc(O)c(O)c1` [protocatechuate]: 40 to 60%.
